The values below come from EP0443568B1, “Fused thiophene derivatives, their production and use” (Takeda Chemical Industries, Ltd., priority 1990, dated 1991).

The target in test [1] is T1, A-II-receptor (Bos taurus, UniProt P25104).
T1 construct: An A-II-receptor was prepared from the membrane fraction of bovine adrenal cortex; from tissue; host or cells: bovine adrenal cortex membrane fraction
T1 sequence (P25104 1-359): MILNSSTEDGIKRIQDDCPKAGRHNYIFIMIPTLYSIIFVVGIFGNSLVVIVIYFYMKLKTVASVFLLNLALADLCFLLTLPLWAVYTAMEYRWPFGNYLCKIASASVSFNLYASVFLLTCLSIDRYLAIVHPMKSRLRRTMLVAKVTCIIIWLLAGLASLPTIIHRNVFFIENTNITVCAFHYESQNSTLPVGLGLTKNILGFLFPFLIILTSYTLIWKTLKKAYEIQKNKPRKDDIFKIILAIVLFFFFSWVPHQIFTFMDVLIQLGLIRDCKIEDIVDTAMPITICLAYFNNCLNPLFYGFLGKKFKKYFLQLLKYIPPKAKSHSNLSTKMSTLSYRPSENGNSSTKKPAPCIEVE
Briefly: Inhibition of binding of angiotensin-II to angiotensin receptor (radio receptor assay, 125I-A-II). The settings on record: membrane fraction of bovine adrenal cortex, room temperature, one hour, read-out: Radio Receptor Assay IC₅₀. Here is the method: An experiment of inhibition on the binding of angiotensin-II (A-II) to A-II-receptor was conducted by modifying the method of Douglas et al. [Endocrinology, 102, 685-696 (1978)]. An A-II-receptor was prepared from the membrane fraction of bovine adrenal cortex.
The compound of the present invention (10⁻⁹M to 3 × 10⁻⁵M ) and ¹²⁵I-A-II (1.85 kBq/50 µ l) were added to the receptor membrane fraction, and the mixture was incubated at room temperature for one hour. The receptor-bound and free ¹²⁵I-A-II were separated through a filter (Whatman GF/B filter), and the radioactivity of ¹²⁵I-A-II bound to the receptor was measured.

The subject of test [2] is A-II-induced pressor action. Briefly: Inhibitory effect on pressor action of A-II in rats after oral administration. The test is classed as in vivo, Jcl : SD rats. The settings on record: Rattus norvegicus, p.o., A-II 100 ng/kg intravenous, male SD rats, read-out: Pressor Response (30 mg/Kg, p.o.). The method, then: Jcl : SD rats (9 week old, male) were used. On the day previous to the experiment, these animals were applied with cannulation into the femoral artery and vein under anesthesia with pentobarbital Na. The animals were fasted but allowed to access freely to drinking water until the experiment was started. Just on the day of conducting the experiment, the artery cannula was connected with a blood-pressure transducer, and the average blood pressure was recorded by means of polygraph. Before administration of the drug, the pressor action due to intravenous administration of A-II (100 ng/kg) as the control was measured. The drugs were orally administered, and then, at each point of the measurement, A-II was administered intravenously, and the pressor action was similarly measured. By comparing the pressor action before and after administration of the drug, the percent inhibition by the drug on A-II-induced pressor action was evaluated.

Consider `CCc1cc2c(=O)c(C(=O)NCc3ccc(F)cc3)cn(Cc3ccc(-c4ccccc4-c4nn[nH]n4)cc3)c2s1` [compound 23], for which the IC50 in test [1] was 170 nM. The inhibition in vivo at 30 mg/kg in test [2] is ≥ 70%.

With `CCOC(=O)c1cn(Cc2ccc(-c3ccccc3C(=O)O)cc2)c2sc(CC)cc2c1=O` [compound 11], in test [1], the IC50 was 210 nM.

Consider `CCc1cc2c(=O)c(C(=O)NCc3ccc(C)cc3)cn(Cc3ccc(-c4ccccc4-c4nn[nH]n4)cc3)c2s1` [compound 28], for which the IC50 in test [1] turned out to be 220 nM. In addition, the inhibition in vivo at 30 mg/kg in test [2] is 50 to 70%.

As for `CCc1cc2c(=O)c(C(=O)NCCO)cn(Cc3ccc(-c4ccccc4-c4nn[nH]n4)cc3)c2s1` [compound 15], the IC50 in test [1] was determined as 50 nM.

For `CCc1cc2c(=O)c(C(=O)NCC(C)C)cn(Cc3ccc(-c4ccccc4-c4nn[nH]n4)cc3)c2s1` [compound 14], the IC50 in test [1] was determined as 130 nM.

In the case of `CCc1cc2c(=O)c(C(N)=O)cn(Cc3ccc(-c4ccccc4-c4nn[nH]n4)cc3)c2s1` [compound 13], the IC50 in test [1] was 20 nM.

In the case of `CCc1cc2c(=O)c(C(=O)NCc3ccccc3)cn(Cc3ccc(-c4ccccc4-c4nn[nH]n4)cc3)c2s1` [compound 12], in test [1], the IC50 is 60 nM. Moreover, the inhibition in vivo at 30 mg/kg in test [2] is ≥ 70%.

Take `CCOC(=O)c1cn(Cc2ccc(-c3ccccc3-c3nn[nH]n3)cc2)c2sc(Br)cc2c1=O` [compound 3]: the IC50 in test [1] stood at 70 nM.

Take `CCCc1cc2c(=O)c(C(=O)OCC)cn(Cc3ccc(-c4ccccc4-c4nn[nH]n4)cc3)c2s1` [compound 6]: the IC50 in test [1] stood at 90 nM.

Turning to `CCc1cc2c(=O)c(C(=O)NCc3ccccc3F)cn(Cc3ccc(-c4ccccc4-c4nn[nH]n4)cc3)c2s1` [compound 26], in test [1], the IC50 stood at 210 nM. Besides, the inhibition in vivo at 30 mg/kg in test [2] is ≥ 70%.

As for `CCOC(=O)c1cn(Cc2ccc(-c3ccccc3-c3nn[nH]n3)cc2)c2sc(C)cc2c1=O` [compound 5], in test [1], the IC50 came to 50 nM.

Take `CCOC(=O)c1cn(Cc2ccc(-c3ccccc3-c3nn[nH]n3)cc2)c2sccc2c1=O` [compound 4]: the IC50 in test [1] is 200 nM.

For `CCc1cc2c(=O)c(C(=O)NCc3cccc(F)c3)cn(Cc3ccc(-c4ccccc4-c4nn[nH]n4)cc3)c2s1` [compound 24], the IC50 in test [1] turned out to be 190 nM. The inhibition in vivo at 30 mg/kg in test [2] is ≥ 70%.

With `CCc1cc2c(=O)c(C(=O)OCCOC)cn(Cc3ccc(-c4ccccc4-c4nn[nH]n4)cc3)c2s1` [compound 8], the IC50 in test [1] was found to be 10 nM.

On to `CCOC(=O)c1cn(Cc2ccc(-c3ccccc3-c3nn[nH]n3)cc2)c2sc(C#N)cc2c1=O` [compound 20], for which, in test [1], the IC50 was 670 nM.

With `CCc1cc2c(=O)c(C(=O)OCC(C)C)cn(Cc3ccc(-c4ccccc4-c4nn[nH]n4)cc3)c2s1` [compound 7], the IC50 in test [1] is 170 nM.

Regarding `CCc1cc2c(=O)c(C(=O)Nc3ccccc3)cn(Cc3ccc(-c4ccccc4-c4nn[nH]n4)cc3)c2s1` [compound 16], the IC50 in test [1] came out at 120 nM. Besides, the inhibition in vivo at 30 mg/kg in test [2] was ≥ 70%.

Regarding `CCOC(=O)c1cn(Cc2ccc(-c3ccccc3-c3nn[nH]n3)cc2)c2sc(CC)cc2c1=O` [compound 2], the IC50 in test [1] turned out to be 50 nM.

For the molecule `CCc1cc2c(=O)c(C(=O)NCc3ccccc3C)cn(Cc3ccc(-c4ccccc4-c4nn[nH]n4)cc3)c2s1` [compound 29], the IC50 in test [1] amounted to 120 nM. Moreover, in test [2], the inhibition in vivo at 30 mg/kg was ≥ 70%.

Turning to `CCc1cc2c(=O)c(C(=O)NC(C)c3ccccc3)cn(Cc3ccc(-c4ccccc4-c4nn[nH]n4)cc3)c2s1` (stereo not shown) [compound 25], the IC50 in test [1] was found to be 780 nM. In addition, the inhibition in vivo at 30 mg/kg in test [2] is ≥ 70%.

Consider `CCc1cc2c(=O)c(C(=O)NCc3ccccn3)cn(Cc3ccc(-c4ccccc4-c4nn[nH]n4)cc3)c2s1` [compound 30], for which, in test [1], the IC50 came to 20 nM. Moreover, the inhibition in vivo at 30 mg/kg in test [2] is ≥ 70%.

For the molecule `CCc1cc2c(=O)c(C(=O)NCc3ccccc3OC)cn(Cc3ccc(-c4ccccc4-c4nn[nH]n4)cc3)c2s1` [compound 21], the IC50 in test [1] came out at 250 nM. Further, in test [2], the inhibition in vivo at 30 mg/kg is ≥ 70%.

In the case of `CCc1cc2c(=O)c(C(=O)O)cn(Cc3ccc(-c4ccccc4-c4nn[nH]n4)cc3)c2s1` [compound 10], the IC50 in test [1] was 40 nM. Besides, in test [2], the inhibition in vivo at 30 mg/kg is 50 to 70%.
